Values quoted from earlier work, collected in article PMC8018465, “Antimicrobial activities of a small molecule compound II-6s against oral streptococci” (Journal of Oral Microbiology, 2021).

Tested on: methicillin-resistant Staphylococcus aureus (MRSA)
Parameters: method as in PMID 30940910
Settings: cited from earlier work

In the case of `CC(C)(Cc1ccc2ccccc2c1)NC[C@@H](O)COc1cccc(Cl)c1C#N` [NPS-2143, reference compound], the “antimicrobial activity against MRSA” value is listed as “bacteriostatic activity”.
